Earlier results as cited in PMC10855781 (International Journal of Molecular Sciences, 2024).
Read-outs that look alike come from different tables or passages of the source.

What was measured:
DNA = details: apparent equilibrium binding constant; ref [72]
Description: Figure 2 The equilibrium binding constants of daunomycin (Dau) and its oxime-linked amino acid derivatives to DNA. TEXT PRINTED IN THE PICTURE: Dau: K (x10^5)(M^−1): 11.7 | H-Lys(Dau=Aoa-OH): K (x10^5)(M^−1): 6.8 | Dau=Aoa-Gly-OH: K (x10^5)(M^−1): 6.74 | Dau=Aoa-Tyr-OH: K (x10^5)(M^−1): 4.4 | Dau=Aoa-Leu-OH: K (x10^5)(M^−1): 3.23

[1] = system: human colorectal adenocarcinoma (HT-29); details: Table 2; ref [75]
Description: Table 2 Comparative study of cytotoxic effects and cardiotoxicity elicited by selected GnRH-based anthracycline conjugates. || Table 3 In vivo tumor growth inhibition of a few relevant Dau-GnRH-III conjugates. | column: Cytostatic Effect (IC50: μM) on HT-29 cells

mice = system: mice
Description: The most widely studied oxime-linked daunomycin–peptide conjugates were GnRH-III-based derivatives. GnRH-III (<[…]-NH2, where <E is pyroglutamic acid) was first isolated from sea lamprey and has a very low-level hormonal effect in mammals, but binds to both the human GnRH receptors (GnRH-IR and GnRH-IIR). […] Nevertheless, the results of the in vivo acute and chronic toxicity measureme ...

C26 colon tumor = details: (w) tumor weight reduction, day 13; treatments days 4 and 7; conjugates 26.6 μmol/kg (15 mg Dau content), Dau 2 mg/kg; ref [82],[86]
Description: Table 3 In vivo tumor growth inhibition of a few relevant Dau-GnRH-III conjugates. | column: C26 orth. […] In the case of the C26 colon tumor-bearing female Balb/c mice, only a 7% reduction in tumor weight was detected on day 13 after the two treatments on days 4 and 7 with [^8Lys(Dau=Aoa)]-GnRH-III, at a 26.6 μmol/kg (15 mg Dau content) dose. […] It is worth ment ...

HT-29 human colon cancer [2] = details: SCID mice, single i.p. 2.5 mg/kg (4.43 μmol); ref [81]
Description: Table 3 In vivo tumor growth inhibition of a few relevant Dau-GnRH-III conjugates. | column: HT-29 ^b s.c. SCID [%] || In another experiment, HT-29 human colon cancer was developed s.c. in immunodeficient SCID mice. Dau and two conjugates (with or without a GFLG spacer between the GnRH-III homing peptide and the payload) were used for the treatment. The first i.p. administrations were performed on day 13 after tumor inoculation. All the mice treated once with 2.5 mg/kg body weight (4.43 μmol) free Dau died within 10 days. In contrast, the conjugates at a dose of 15 mg Dau content/kg body weight (26.6 μmol) that refers to 52 mg/kg [^8Lys(Dau=Aoa)]-GnRH-III and 62.5 mg/kg [^8Lys(Dau=Aoa-GFLG)]-GnRH-III co ...

C26 murine colon cancer = details: ref [20]
Description: Table 3 In vivo tumor growth inhibition of a few relevant Dau-GnRH-III conjugates. | column: C26 ^a s.c. Balb/c [%] || In our experiments, GnRH-III was applied as a targeting peptide. […] The effect highly depended on the treatment schedule. In the first attempt, the conjugate was administered i.p. at a dose of 8.86 μmol (5 mg Dau-content/kg body weight) five times on days 7, 9, 11, 14 and 16 after tumor transplantation ...

HT-29 human colon cancer [3] = details: ref [82]
Description: Table 3 In vivo tumor growth inhibition of a few relevant Dau-GnRH-III conjugates. | column: HT-29 orth. SCID [%] || Starting from these promising results, Dau conjugates with further GnRH-III derivatives using different short-chain fatty acids (on the side chains of Lys in position 4) were developed. […] The experiment finished on day 30, but the animals in the group treated with Dau had to be sacrificed on day 23. […] However, these numbers cannot be directly compared because the termination days were different during the experiment. The toxicities of the compound ...

[4] = system: human umbilical vein endothelial cells (HUVEC); set-up: key: 0: no cardiotoxicity; +: weak; ++: moderate; +++: strong cardiotoxicity; details: long-term (0–72 h) cytotoxic effect, impedimetric; ref [75]
Description: Table 2 Comparative study of cytotoxic effects and cardiotoxicity elicited by selected GnRH-based anthracycline conjugates. | column: Cardiotoxicity

HT-29 tumor = details: ref [18]
Description: In our group, we synthesized conjugates based on a heptapeptide (VHLGYAT) selected by Zhang et al. and tested them on HT-29 human colon adenocarcinoma. Since sequence modification may result in different oxime-linked Dau-amino acid fragments, a cathepsin B- labile spacer was incorporated to the N-terminal of the homing peptide. From the parent compound (Dau=Aoa-LRRY-VHLGYAT-NH2), the potential positions that can be substituted were selected using Ala-scan. […] Statistical analysis was performed by Mann-Whitney test. *, ** and *** mean significant at p < 0.05, p < 0.01 and p < 0.001, respectively. Adapted with permission from ref. [18]. 2019, Elsevier. TEXT PRINTED IN THE PICTURE: (a) Dau: Tumour weight (g): 16% | (a) Parent: Tumour weight (g): 35% | (a) G/F exchange: Tumour weight (g): 11% | (b) Dau: Liver weight (g): 72% | (b) Parent: Liver weight (g): 101% | (b) G/F exchange: Liver weight (g): 90% | (c) Dau: Prol ...

SMILES: COc1cccc2c1C(=O)c1c(O)c3c(c(O)c1C2=O)C[C@@](O)(C(C)=O)C[C@@H]3O[C@H]1C[C@H](N)[C@H](O)[C@H](C)O1 [Dau, daunomycin]
- K, equilibrium binding constant to DNA (DNA): 1.17e+06 M⁻¹
- IC50 [1]: 300 ± 200 nM
- dose with remarkable toxicity (mice; healthy mice): > 2 mg/kg
- dose with remarkable toxicity (mice; immunodeficient mice): > 1 mg/kg
- C26 orth. Balb/c tumor growth inhibition (w) (C26 colon tumor): 24.4%
- time within which all treated mice died (HT-29 human colon cancer [2]): ≤ 10 days
- tumor volume inhibition (C26 murine colon cancer; free Dau 2 mg/kg (3.55 μmol) days 7, 9, 11, 14, 16, day 26): 22.6%
- median survival rate in comparison to the control group (C26 murine colon cancer; free Dau 2 mg/kg days 7, 9, 11, 14, 16): 0.81
- relative liver weight loss in comparison with the controls (HT-29 human colon cancer [3]; Dau 1 mg/kg i.v. weekly for 7 weeks): 11%
- tumor weight reduction (HT-29 human colon cancer [3]; conjugates 17.72 μmol (10 mg Dau content)/kg s.c. x7, end day 30, Dau 1 mg/kg days 7, 13, 20, sacrificed day 23): 84.3%
- reduction in tumor weight (HT-29 human colon cancer [3]; conjugates 15 mg Dau content/kg i.v. x5 from day 5, then 7.5 mg i.p. x8, twice a week, Dau 1 mg/kg i.v. weekly for 7 weeks): 29.7%
- proliferation index compared to the controls (HT-29 human colon cancer [3]; same experiment as E44, average): 98.6%
- vascularization rate compared to the controls (HT-29 human colon cancer [3]; same experiment as E44): 112.5%
- rate of changes in the liver and body weights (HT-29 human colon cancer [3]; same experiment as E49): 70.6%
- Cardiotoxicity, HUVEC [4]: +++
- tumor weight reduction compared to the control group (HT-29 tumor; conjugates 10 mg/kg Dau content i.p. days 13, 16, 20, 23, 27, end day 30, Dau 1 mg/kg days 13 and 20, sacrificed day 23): 84%
- decrease in liver weight vs controls (HT-29 tumor; same experiment as E56): 28%
